Measured values from publication PMC6825211 (Nature Communications, 2019).
Where “and” joins values, the source holds several entries; their conditions need not be identical. Identical values can stand only once.

Tests used:
JAK1 = JAK1 (Homo sapiens, UniProt P23458); assay: Nanosyn kinase profiling, mobility shift assay; conditions: read-out: % inhibition by neratinib
MST1 [1] = target: T1, MST1 (Homo sapiens, UniProt Q13043); assay: LanthaScreen Eu kinase binding assay (HTS and dose response); design: purchased ThermoFisher; conditions: three experiments
T1 sequence (Q13043 1-487): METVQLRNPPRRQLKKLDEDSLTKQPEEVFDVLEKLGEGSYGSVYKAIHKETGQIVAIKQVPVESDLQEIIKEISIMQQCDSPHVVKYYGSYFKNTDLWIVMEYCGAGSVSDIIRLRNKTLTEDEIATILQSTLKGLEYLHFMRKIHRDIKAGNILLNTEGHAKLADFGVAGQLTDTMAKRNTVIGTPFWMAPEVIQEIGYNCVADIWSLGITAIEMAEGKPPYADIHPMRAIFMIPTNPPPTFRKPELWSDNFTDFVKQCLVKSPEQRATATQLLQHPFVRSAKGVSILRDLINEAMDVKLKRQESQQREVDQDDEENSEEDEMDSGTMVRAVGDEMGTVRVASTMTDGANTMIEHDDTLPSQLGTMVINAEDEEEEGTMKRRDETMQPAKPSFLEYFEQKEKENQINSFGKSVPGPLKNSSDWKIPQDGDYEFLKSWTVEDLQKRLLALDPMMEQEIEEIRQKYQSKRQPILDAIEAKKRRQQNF
Description: A total of 39 hits were selected for 9-point dose response confirmation in triplicate, starting at 1 μM followed by 1:5 serial dilution.
Compounds in 1000× DMSO stock solution were dispensed by using Echo555 liquid dispensing system (Labcyte, CA) to 1536-well microplate (Corning, NY). Kinase buffer A (ThermoFisher, MA) was prepared and added to each well. […] Each reagent was added to the microplate in equal volume.

MET = MET (Homo sapiens, UniProt P08581); assay: Nanosyn kinase profiling, mobility shift assay; conditions: read-out: % inhibition by neratinib
INS-1E cells = assay: Western blot of pMST1, caspase-3/PARP cleavage, PDX1, BIM under diabetogenic conditions; format: cell-based, rat
Description: . pThr183), caspase-3 and PARP cleavage, PDX1, tubulin, and actin were analyzed by western blotting. Representative Western blots and pooled quantitative densitometry analysis are shown from three independent cell line experiments (n = 3). […]; all by Student’s t tests.
. pThr183), caspase-3 and PARP cleavage, and BIM and actin were analyzed by western blotting. Representative Western blots (b) and pooled quantitative densitometry analysis (c) are shown from 3–6 independent culture dishes (n = 3–6). […]; all by Student’s t tests.
Human islets were isolated from eight pancreases of nondiabetic organ donors at PRODO Labs and at Lille University and cultured on extracellular matrix-coated dishes (Novamed, Jerusalem, Israel)[62] or on Biocoat Collagen I coated dishes (#356400, Corning, ME, USA). […] The clonal rat β-cell line INS-1E was kindly provided by Dr. Claes Wollheim, Geneva & Lund University. Human islets were cultured in complete CMRL-1066 (Invitrogen) medium at 5.5 mM glucose, mouse islets and INS-1E cells at complete RPMI-1640 medium at 11.1 mM glucose. […] . Palmitic acid (Sigma) was dissolved at 10 mmol/l in RPMI-1640 medium containing 11% fatty acid–free bovine serum albumin (BSA) (Sigma) under an N2-atmosphere and added to the culture at 0.5 mM[64]. […] . Isolated human islets or INS-1E cells were infected with adenovirus carrying LacZ as control or MST1 or LATS2 (all Vector Biolabs), at a multiplicity of infection of 100 (human islets) or 20 (INS-1E) for 4 h[11]. Adenovirus was subsequently washed off with PBS and replaced by fresh medium with 10% FBS and the respective analysis performed after 48 h post infection.

FAK = FAK (Homo sapiens, UniProt Q05397); assay: Nanosyn kinase profiling, mobility shift assay; conditions: read-out: % inhibition by neratinib
MST2 = MST2 (Homo sapiens, UniProt Q13188); assay: biochemical; conditions: read-out: % inhibition by neratinib
MEK1 = MEK1 (Homo sapiens, UniProt Q02750); assay: Nanosyn kinase profiling, mobility shift assay; format: biochemical
[2] = tested on: panel of 50 serine, threonine, and tyrosine kinases; assay: Nanosyn panel of 50 biochemical kinase assays; conditions: 10 µM, of 50 kinases
ITK = ITK (Homo sapiens, UniProt Q08881); assay: Nanosyn kinase profiling, mobility shift assay; conditions: read-out: % inhibition by neratinib
PRKACA = PRKACA (Homo sapiens, UniProt P17612); assay: Nanosyn kinase profiling, mobility shift assay; conditions: read-out: % inhibition by neratinib
MST1 [3] = target: T2, MST1 (Rattus norvegicus, UniProt A0A8I6A0F8); assay: CETSA assay; format: cell-based; conditions: 5 μM, 2 h, INS-1E, 55 °C
T2 construct: endogenous in cells; host or cells: INS-1E (rat beta-cell line)
Description: Thereafter, cells were pelleted at 200 g for 4 min and resuspended in PBS supplemented with phosphatase and protease inhibitor cocktail at the cell density of 3 Mill./100 µl. Each cell suspension was distributed into five 0.2-ml PCR tubes with 100 µl of cell suspension per tube. PCR tubes were heated at their designated temperature (43–55 °C) on a thermal cycler for 3 min, incubated at room temperature for 3 min, and snap-frozen in liquid nitrogen. Cell lysates were prepared by freezing–thawing the samples in liquid nitrogen twice, and soluble MST1 was detected by western blot analysis.

MAP4K4 = MAP4K4 (Homo sapiens, UniProt O95819); assay: biochemical; conditions: read-out: % inhibition by neratinib
GSK-3-BETA = GSK-3-BETA (Homo sapiens, UniProt P49841); assay: Nanosyn kinase profiling, mobility shift assay; conditions: read-out: % inhibition by neratinib
[4] = Pharmacokinetic study, single i.p. dose; conditions: for AUC(0-inf): AUCINF
[5] = 5 mg/kg IP, individual animals 1-3

MEK1, sequence (Q02750 whole entry, species assumed): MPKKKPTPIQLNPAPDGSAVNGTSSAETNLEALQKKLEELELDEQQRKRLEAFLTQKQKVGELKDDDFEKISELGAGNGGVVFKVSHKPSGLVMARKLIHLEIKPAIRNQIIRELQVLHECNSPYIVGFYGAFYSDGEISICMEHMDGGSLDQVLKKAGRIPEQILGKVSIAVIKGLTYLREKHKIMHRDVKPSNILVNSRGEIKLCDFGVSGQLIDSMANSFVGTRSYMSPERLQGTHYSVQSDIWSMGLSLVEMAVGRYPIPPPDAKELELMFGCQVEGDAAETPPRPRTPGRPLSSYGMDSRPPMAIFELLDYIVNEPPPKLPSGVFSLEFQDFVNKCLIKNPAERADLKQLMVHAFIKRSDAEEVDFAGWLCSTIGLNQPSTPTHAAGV
ITK, sequence (Q08881 whole entry): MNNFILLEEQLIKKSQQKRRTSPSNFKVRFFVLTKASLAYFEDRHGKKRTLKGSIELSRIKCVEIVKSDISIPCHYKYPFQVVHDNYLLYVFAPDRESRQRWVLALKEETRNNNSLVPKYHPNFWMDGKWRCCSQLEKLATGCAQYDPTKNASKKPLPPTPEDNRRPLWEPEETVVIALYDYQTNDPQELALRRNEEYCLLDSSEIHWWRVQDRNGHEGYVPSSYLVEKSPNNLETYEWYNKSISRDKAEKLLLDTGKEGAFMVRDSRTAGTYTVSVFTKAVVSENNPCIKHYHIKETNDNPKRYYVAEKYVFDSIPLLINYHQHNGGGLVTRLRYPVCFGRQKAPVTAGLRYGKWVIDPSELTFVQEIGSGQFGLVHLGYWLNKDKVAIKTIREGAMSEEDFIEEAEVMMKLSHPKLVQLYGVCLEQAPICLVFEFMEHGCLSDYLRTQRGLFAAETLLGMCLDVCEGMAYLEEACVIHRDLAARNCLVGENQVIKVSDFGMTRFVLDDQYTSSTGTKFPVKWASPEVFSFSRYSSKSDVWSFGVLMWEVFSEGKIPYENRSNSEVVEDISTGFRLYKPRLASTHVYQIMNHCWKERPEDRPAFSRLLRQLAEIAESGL
FAK, sequence (Q05397 whole entry): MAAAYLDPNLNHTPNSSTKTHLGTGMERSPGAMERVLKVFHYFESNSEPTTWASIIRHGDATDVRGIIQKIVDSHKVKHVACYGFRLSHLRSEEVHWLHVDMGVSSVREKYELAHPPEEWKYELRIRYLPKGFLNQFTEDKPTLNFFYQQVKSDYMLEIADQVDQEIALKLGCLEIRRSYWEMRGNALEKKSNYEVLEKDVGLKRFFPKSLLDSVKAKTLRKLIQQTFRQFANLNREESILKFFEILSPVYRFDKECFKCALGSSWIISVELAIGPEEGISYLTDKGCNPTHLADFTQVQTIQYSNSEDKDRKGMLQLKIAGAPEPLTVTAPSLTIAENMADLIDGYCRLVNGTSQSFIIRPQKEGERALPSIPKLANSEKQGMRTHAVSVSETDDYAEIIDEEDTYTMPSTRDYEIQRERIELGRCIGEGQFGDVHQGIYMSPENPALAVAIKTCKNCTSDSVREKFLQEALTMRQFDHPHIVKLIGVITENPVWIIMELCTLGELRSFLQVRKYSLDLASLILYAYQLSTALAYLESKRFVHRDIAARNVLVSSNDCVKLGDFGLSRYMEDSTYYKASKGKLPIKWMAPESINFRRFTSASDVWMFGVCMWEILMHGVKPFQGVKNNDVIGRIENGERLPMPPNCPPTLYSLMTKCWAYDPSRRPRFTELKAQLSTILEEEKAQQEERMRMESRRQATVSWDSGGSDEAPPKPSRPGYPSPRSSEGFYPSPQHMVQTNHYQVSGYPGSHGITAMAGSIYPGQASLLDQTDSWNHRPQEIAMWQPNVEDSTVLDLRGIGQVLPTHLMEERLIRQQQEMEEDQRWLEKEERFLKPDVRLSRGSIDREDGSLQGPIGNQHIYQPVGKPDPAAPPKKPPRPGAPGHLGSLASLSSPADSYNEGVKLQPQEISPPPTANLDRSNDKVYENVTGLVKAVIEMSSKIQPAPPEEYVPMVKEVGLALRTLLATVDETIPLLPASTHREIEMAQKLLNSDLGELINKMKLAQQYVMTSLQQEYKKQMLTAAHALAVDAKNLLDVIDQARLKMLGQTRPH
MST2, sequence (Q13188 whole entry, species assumed): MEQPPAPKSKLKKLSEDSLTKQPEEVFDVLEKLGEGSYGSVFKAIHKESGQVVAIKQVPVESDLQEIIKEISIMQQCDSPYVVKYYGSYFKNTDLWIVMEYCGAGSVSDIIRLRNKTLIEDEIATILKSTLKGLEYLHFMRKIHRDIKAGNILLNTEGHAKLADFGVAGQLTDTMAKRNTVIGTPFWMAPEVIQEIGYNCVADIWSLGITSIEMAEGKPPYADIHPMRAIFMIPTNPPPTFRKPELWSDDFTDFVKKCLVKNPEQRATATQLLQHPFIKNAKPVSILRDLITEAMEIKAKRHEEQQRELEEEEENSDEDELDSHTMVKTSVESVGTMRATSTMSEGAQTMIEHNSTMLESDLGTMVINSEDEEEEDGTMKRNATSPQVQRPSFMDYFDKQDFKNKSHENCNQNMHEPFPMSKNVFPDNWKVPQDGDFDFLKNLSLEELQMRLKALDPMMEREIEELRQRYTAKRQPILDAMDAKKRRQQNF
T2 sequence (A0A8I6A0F8 1-487): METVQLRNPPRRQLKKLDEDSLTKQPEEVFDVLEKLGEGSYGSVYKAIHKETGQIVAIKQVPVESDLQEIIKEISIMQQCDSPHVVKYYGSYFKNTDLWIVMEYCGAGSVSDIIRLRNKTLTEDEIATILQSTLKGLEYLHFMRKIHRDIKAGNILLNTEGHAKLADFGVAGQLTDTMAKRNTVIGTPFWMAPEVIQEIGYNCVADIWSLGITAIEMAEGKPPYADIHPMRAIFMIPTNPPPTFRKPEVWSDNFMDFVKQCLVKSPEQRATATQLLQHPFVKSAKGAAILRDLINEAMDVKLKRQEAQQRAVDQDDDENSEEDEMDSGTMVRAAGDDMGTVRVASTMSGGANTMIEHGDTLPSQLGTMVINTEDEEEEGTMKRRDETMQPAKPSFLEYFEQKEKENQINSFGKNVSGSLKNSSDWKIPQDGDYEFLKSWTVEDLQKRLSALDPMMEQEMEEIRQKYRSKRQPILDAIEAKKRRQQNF
MET, sequence (P08581 25-1390): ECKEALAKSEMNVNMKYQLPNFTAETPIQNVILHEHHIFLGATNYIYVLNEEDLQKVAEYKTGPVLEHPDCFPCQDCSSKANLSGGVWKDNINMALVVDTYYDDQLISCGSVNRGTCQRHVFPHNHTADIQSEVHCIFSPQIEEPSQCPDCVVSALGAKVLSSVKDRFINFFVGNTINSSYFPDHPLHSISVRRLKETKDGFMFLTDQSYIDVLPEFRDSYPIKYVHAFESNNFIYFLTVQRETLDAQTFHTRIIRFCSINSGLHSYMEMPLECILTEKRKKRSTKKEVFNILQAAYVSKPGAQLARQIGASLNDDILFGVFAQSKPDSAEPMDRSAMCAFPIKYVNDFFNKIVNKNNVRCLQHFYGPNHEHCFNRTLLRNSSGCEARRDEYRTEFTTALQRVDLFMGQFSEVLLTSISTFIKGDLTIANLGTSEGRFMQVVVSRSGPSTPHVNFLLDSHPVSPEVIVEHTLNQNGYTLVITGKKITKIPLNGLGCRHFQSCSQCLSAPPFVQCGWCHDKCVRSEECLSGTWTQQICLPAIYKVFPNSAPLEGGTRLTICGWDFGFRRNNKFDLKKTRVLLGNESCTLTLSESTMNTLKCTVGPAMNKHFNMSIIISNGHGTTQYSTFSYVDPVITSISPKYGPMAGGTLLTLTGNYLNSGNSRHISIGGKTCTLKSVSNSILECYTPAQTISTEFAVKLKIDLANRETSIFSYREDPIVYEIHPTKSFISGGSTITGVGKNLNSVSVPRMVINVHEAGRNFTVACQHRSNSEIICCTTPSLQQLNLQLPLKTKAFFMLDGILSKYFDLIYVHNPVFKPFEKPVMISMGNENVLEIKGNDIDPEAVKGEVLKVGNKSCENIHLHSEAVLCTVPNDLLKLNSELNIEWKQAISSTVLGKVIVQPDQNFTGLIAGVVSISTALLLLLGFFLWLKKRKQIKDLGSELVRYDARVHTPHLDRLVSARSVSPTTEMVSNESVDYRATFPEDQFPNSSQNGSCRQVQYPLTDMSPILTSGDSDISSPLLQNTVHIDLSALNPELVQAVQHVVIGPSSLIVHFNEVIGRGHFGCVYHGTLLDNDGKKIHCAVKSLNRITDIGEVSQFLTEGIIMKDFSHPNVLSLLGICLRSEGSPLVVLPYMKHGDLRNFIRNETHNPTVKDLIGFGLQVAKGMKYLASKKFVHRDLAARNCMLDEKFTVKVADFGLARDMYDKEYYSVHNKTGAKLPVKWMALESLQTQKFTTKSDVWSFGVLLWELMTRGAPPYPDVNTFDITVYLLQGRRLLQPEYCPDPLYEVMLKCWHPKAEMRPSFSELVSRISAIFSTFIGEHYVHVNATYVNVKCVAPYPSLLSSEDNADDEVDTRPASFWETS
GSK-3-BETA, sequence (P49841 whole entry): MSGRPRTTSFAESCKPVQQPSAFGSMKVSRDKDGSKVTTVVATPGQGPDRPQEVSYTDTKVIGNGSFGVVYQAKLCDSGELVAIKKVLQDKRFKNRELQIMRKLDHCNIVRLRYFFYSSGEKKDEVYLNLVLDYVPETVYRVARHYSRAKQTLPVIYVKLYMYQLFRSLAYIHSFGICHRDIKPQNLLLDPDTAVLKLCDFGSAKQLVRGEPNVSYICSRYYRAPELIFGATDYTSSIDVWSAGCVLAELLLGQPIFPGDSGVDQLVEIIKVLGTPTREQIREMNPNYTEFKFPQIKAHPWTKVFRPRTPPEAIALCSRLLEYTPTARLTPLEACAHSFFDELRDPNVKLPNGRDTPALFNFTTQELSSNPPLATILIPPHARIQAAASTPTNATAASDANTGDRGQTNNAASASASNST

CCOc1cc2ncc(C#N)c(Nc3ccc(OCc4ccccn4)c(Cl)c3)c2cc1NC(=O)/C=C/CN(C)C [neratinib]
inhibition at 10 µM (JAK1): 5% | MST1 (% activity) (MST1 [1]; neratinib 0.02 nM): 87.31% and 98.20% and 108.86% | MST1 (% activity) (MST1 [1]; neratinib 0.06 nM): 99.80% and 103.92% | activity at 60 pM (MST1 [1]; neratinib 0.06 nM): 114% | MST1 (% activity) (MST1 [1]; neratinib 0.17 nM): 91.02% and 100.09% | activity at 0.00017 µM (MST1 [1]; neratinib 0.17 nM): 97.1% | MST1 (% activity) (MST1 [1]; neratinib 0.51 nM): 98.60% and 98.84% | activity at 0.00051 µM (MST1 [1]; neratinib 0.51 nM): 101% | MST1 (% activity) (MST1 [1]; neratinib 1.52 nM): 88.42% and 89.31% | activity at 0.00152 µM (MST1 [1]; neratinib 1.52 nM): 103% | MST1 (% activity) (MST1 [1]; neratinib 4.57 nM): 67.07% and 80.02% | activity at 0.00457 µM (MST1 [1]; neratinib 4.57 nM): 82.2% | MST1 (% activity) (MST1 [1]; neratinib 13.72 nM): 46.34% and 78.85% and 63.80% | MST1 (% activity) (MST1 [1]; neratinib 41.15 nM): 53.70% and 49.03% | activity at 0.04115 µM (MST1 [1]; neratinib 41.15 nM): 48.9% | MST1 (% activity) (MST1 [1]; neratinib 123.46 nM): 24.15% and 30.50% | activity at 0.12346 µM (MST1 [1]; neratinib 123.46 nM): 30.6% | MST1 (% activity) (MST1 [1]; neratinib 370.37 nM): 7.98% and 6.57% | activity at 0.37037 µM (MST1 [1]; neratinib 370.37 nM): 11.7% | MST1 (% activity) (MST1 [1]; neratinib 1111.11 nM): 8.75% and 1.83% | MST1 (% activity) (MST1 [1]; neratinib 3333.33 nM): 4.17% and -2.20% and -1.83% | inhibition at 10 µM (MET): 28% | PDX1 expression reduced by elevated glucose (INS-1E cells; 22.2 mM glucose, 72 h): restored PDX1 expression | H2O2- and high glucose/palmitate-induced MST1 activation and apoptosis (caspase-3 and PARP cleavage) (INS-1E cells; 72 h): potently inhibited | mitochondrial BIM induction under diabetic conditions (INS-1E cells; HG/Pal, 10 μM, 24 h): significantly reduced | stress-induced MST1 activation and caspase-3 and PARP cleavage (INS-1E cells; HG/Pal, 10 μM, 24 h): strongly counteracted | inhibition at 10 µM (FAK): 8% | inhibition at 10 µM (MST2): 97% | IC50 (MEK1; 12 points dose response): 1490 nM | inhibition at 10 µM (MEK1; read-out: % inhibition by neratinib): 73% | number of kinases with >50% of inhibition [2]: 16 | inhibition at 10 µM (ITK): 88% | inhibition at 10 µM (PRKACA): 3% | thermal stabilization of MST1 in intact cells (MST1 [3]): MST1 stabilization at 55 °C | inhibition at 10 µM (MAP4K4): 73% | inhibition at 10 µM (GSK-3-BETA): 23% | Cl ([4]; 5 mg/kg IP, AVERAGE n=3): 263.8 mL/min/kg | VD ([4]; 5 mg/kg IP, AVERAGE n=3): 58.9 L/kg | AUC0-24 [4, 5]: 1967.1 nM·h and 2125.2 nM·h | AUCINF [4, 5]: 2153.7 nM·h and 2298.5 nM·h | AUCLAST [4, 5]: 1967.1 nM·h and 2125.2 nM·h | Cl [4, 5]: 253.1 mL/min/kg and 277.9 mL/min/kg and 260.4 mL/min/kg | Cmax [4, 5]: 557 nM and 623 nM | MRT [4, 5]: 2.3 h | Tmax [4, 5]: 60 min | VD [4, 5]: 86.9 L/kg and 46.7 L/kg and 43.1 L/kg | t1/2 [4, 5]: 4.0 hr and 1.9 hr (2×) | maximum concentration ([4]; 5 mg/kg single i.p. dose, plasma, fasted mice): 306 ng/mL | AUC(0-t) ([4]; mouse, plasma, ip, 5 mg/kg, AUC0-24, 5 mg/kg IP, AVERAGE n=3): 1.9 µM·h | AUC(0-t) ([4]; mouse, plasma, ip, 5 mg/kg, AUC0-24, 5 mg/kg IP, individual animals 1-3): 1.62 µM·h | AUC(0-inf) ([4]; mouse, plasma, ip, 5 mg/kg, 5 mg/kg IP, AVERAGE n=3): 2.27 µM·h | AUC(0-inf) ([4]; mouse, plasma, ip, 5 mg/kg, 5 mg/kg IP, individual animals 1-3): 2.36 µM·h | AUC(0-t) ([4]; mouse, plasma, ip, 5 mg/kg, AUCLAST, 5 mg/kg IP, AVERAGE n=3): 1.9 µM·h | AUC(0-t) ([4]; mouse, plasma, ip, 5 mg/kg, AUCLAST, 5 mg/kg IP, individual animals 1-3): 1.62 µM·h | Cmax ([4]; mouse, plasma, ip, 5 mg/kg, Cmax, 5 mg/kg IP, AVERAGE n=3): 549 nM | Cmax ([4]; mouse, plasma, ip, 5 mg/kg, Cmax, 5 mg/kg IP, individual animals 1-3): 469 nM | MRT ([4]; mouse, plasma, ip, 5 mg/kg, MRT, 5 mg/kg IP, AVERAGE n=3): 2.4 h | MRT ([4]; mouse, plasma, ip, 5 mg/kg, MRT, 5 mg/kg IP, individual animals 1-3): 2.7 h | Tmax ([4]; mouse, plasma, ip, 5 mg/kg, Tmax, 5 mg/kg IP, AVERAGE n=3): 42 min | Tmax ([4]; mouse, plasma, ip, 5 mg/kg, Tmax, 5 mg/kg IP, individual animals 1-3): 30 min | half-life ([4]; mouse, plasma, ip, 5 mg/kg, t1/2, 5 mg/kg IP, AVERAGE n=3): 156 min | Tmax ([4]; mouse, plasma, ip, 5 mg/kg, time of maximum concentration post dosing, 5 mg/kg single i.p. dose, average): 40.2 min
